According to US20140038985A1, “TREATMENT REGIMENS” (S1 Pharmaceuticals, Inc., priority 2011, published 2014):

Tests used:
healthy volunteer [1] = test: Daily 0-2 sexual desire score in a single-subject sequential four-treatment study (4 weeks each); format: in vivo, human; conditions: for Sexual desire response (in words): overall
Description: (§1) Method. […] (1) Treatment B: […] IR Trz 50 mg t.i.d.; […] Bup 75 mg t.i.d. A washout of 1-4 weeks occurred between each treatment. […] Sexual events were counted, and three domains (sexual arousal, orgasm, and overall satisfaction with the event) were scored. Each of the sexual event variables was converted to a simple patient's global impression of improvement (PGI; improved or not improved today compared to pre-treatment baseline). […] Bup is already recommended as a treatment for HSDD; Trz is not. Thus, Fisher's exact test was applied post-hoc to the PGIs for Treatment B vs. Treatment Llow (Llow) and vs. […] Upon the advice of the independent researcher the subject dichotomized their sexual event results in a simple daily patient's global impression of improvement: improved or not improved today (compared to pre-treatment baseline). The independent researcher, when told that the results were positive for the subject but before seeing any of the data, decided to apply categorical tests to the most obvious comparisons between treatments: for the first two weeks, the second two weeks, and for all four weeks of treatment, low-dose combination of bupropion plus trazodone vs. corresponding dose of bupropion; and high-dose the combination of bupropion plus trazodone vs. same dose of trazodone. The test used for the desire score was a two-tailed paired t test. The test used for the two-category variables was an online two-tailed Fisher's exact test. Both were from the website graphpad.com.*

healthy volunteer [2] = test: Patient's global impression of improvement (PGI) for sexual events: arousal, orgasm, overall satisfaction; same single-subject study; format: in vivo, human
Description: as §1

Row | Structure (SMILES) | Sexual desire response (in words) (healthy volunteer [1]) | 0-2 Daily Desire Score, % of max. (max. = 28) (healthy volunteer [1]; wks 1-2) | 0-2 Daily Desire Score, % of max. (max. = 28) (healthy volunteer [1]; wks 3-4) | Improvements in arousal, % of sexual events (healthy volunteer [2]; third and fourth weeks of use) | Improvements in arousal, % of sexual events (healthy volunteer [2]; total for all four weeks) | Improvements in arousal, % of sexual events (healthy volunteer [2]; weeks 1-2) | Improvements in arousal, fraction of sexual events (healthy volunteer [2]; weeks 1-2)
1 | CC(NC(C)(C)C)C(=O)c1cccc(Cl)c1 (racemic) [Bup, (±)-2-(tert-Butylamino)-1-(3-chlorophenyl)propan-1-one] | intermediate | 32% | 50% | 0% | 20% | 40% | ⅖
2 | O=c1n(CCCN2CCN(c3cccc(Cl)c3)CC2)nc2ccccn12 [Trz, 2-{3-[4-(3-chlorophenyl)piperazin-1-yl]propyl}[1,2,4]triazolo[4,3-a]pyridin-3(2H)-one] | low | 7% | 0, 0% | – | – | – | –
